Measured values from US20240270821A1, “GIP/GLP1/GCG TRI-RECEPTOR AGONISTS AND USES THEREOF” (priority 2023, published 2024).
Like-named read-outs stand apart in the source and are kept apart here. Starred links: 1 amine or outer side, 2 acyl side, 3 side chain; linkers in the order of their positions; H or OH if unused. Non-standard residues stand in square brackets, D forms with d. Groups on a side chain read outwards from the residue. No end group written: not given here. *: point of attachment. C20 diacid = O=C(O)CCCCCCCCCCCCCCCCCCC(=O)*; C18 diacid = O=C(O)CCCCCCCCCCCCCCCCC(=O)*; Phe(4-CN) = N#Cc1ccc(C[C@H](N)C(=O)O)cc1; αMePhe(2-F) = C[C@](N)(Cc1ccccc1F)C(=O)O; γGlu = O=C(O)[C@H](CCC(=O)[*:2])N[*:1]; αMe4Pal = C[C@](N)(Cc1ccncc1)C(=O)O; αMeY = C[C@](N)(Cc1ccc(O)cc1)C(=O)O; 4Pal = N[C@@H](Cc1ccncc1)C(=O)O; αMeL = CC(C)C[C@](C)(N)C(=O)O; αMeS = C[C@](N)(CO)C(=O)O; Orn = NCCC[C@H](N)C(=O)O; Dap = NC[C@H](N)C(=O)O; AEEA = NCCOCCOCC(=O)O; Aib = CC(C)(N)C(=O)O

Tests used:
Assay type in all cases: cell-based
[1] = target: T1, hGLP-1R (Homo sapiens, UniProt P43220); test: Functional cAMP activation in the presence of 0.1% casein (no HSA); conditions: read-out: Relative cAMP EC50, hGLP-1R;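 note: intracellular cAMP rise after 30 min at 37 °C read by HTRF, normalized between buffer only (0%) and maximal control ligand (100%), four-parameter variable-slope fit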
T1 sequence (P43220 24-463): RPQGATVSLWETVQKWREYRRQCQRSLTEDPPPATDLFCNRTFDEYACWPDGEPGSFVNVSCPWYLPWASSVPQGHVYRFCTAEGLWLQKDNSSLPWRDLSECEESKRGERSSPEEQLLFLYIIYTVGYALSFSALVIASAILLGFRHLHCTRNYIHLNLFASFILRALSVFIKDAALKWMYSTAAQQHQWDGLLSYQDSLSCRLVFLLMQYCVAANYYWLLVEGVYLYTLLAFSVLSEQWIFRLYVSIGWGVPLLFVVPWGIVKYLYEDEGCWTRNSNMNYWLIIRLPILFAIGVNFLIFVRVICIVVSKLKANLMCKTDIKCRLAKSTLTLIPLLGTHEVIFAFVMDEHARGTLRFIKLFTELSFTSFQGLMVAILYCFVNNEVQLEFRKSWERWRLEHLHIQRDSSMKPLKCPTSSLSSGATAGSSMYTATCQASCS

[2] = target: T2, hGIPR (Homo sapiens, UniProt P48546); test: as above; conditions: read-out: Relative cAMP EC50, hGIPR;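 note: intracellular cAMP rise after 30 min at 37 °C read by HTRF against a standard curve, scaled between buffer alone (0%) and top control ligand concentration (100%), four-parameter fit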
T2 sequence (P48546 22-466): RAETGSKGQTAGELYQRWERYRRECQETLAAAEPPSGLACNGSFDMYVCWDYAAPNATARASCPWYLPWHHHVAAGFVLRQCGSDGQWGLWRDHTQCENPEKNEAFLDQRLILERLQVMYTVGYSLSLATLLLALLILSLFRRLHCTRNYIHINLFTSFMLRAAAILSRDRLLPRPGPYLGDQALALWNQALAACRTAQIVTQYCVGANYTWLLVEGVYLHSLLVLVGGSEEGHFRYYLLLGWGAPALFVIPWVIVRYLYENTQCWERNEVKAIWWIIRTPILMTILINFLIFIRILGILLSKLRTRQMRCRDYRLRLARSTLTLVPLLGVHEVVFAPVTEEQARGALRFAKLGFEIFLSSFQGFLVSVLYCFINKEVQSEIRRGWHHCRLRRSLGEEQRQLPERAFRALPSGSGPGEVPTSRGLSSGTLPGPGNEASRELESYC

[3] = target: T1, hGLP-1R; test: Functional cAMP activity in the presence of 1% HSA; conditions: read-out: cAMP Rel EC50, hGLP-1R
[4] = target: T2, hGIPR; test: Functional cAMP activity in the presence of 1% HSA; conditions: read-out: cAMP Rel EC50, hGIPR
[5] = target: hGcgR (Homo sapiens, UniProt P47871); test: Functional cAMP activation in the presence of 0.1% casein (no HSA); conditions: read-out: Relative cAMP EC50, hGcgR;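 note: intracellular cAMP rise after 30 min at 37 °C, read by HTRF against a cAMP standard curve, scaled from buffer only (0%) to maximal control ligand response (100%)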
hGcgR, sequence (P47871 26-477): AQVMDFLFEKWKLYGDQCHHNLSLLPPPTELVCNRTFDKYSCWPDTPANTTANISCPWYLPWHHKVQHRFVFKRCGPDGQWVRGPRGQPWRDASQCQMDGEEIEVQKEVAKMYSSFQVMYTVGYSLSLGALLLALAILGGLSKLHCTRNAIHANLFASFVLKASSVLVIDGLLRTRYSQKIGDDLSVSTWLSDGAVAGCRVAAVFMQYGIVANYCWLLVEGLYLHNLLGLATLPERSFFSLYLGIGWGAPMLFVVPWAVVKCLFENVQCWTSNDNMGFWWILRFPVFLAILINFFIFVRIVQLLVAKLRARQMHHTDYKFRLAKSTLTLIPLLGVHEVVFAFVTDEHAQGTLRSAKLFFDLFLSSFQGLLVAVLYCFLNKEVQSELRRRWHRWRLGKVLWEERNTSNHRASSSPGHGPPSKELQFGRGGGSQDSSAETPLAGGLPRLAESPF

[6] = target: human GcgR (Homo sapiens, UniProt P47871); test: Functional cAMP activity in the presence of 1% HSA; conditions: read-out: cAMP Rel EC50, hGcgR
human GcgR, sequence (P47871 26-477): as above

[7] = in the presence of 0.1% casein (no HSA), geometric mean

| Substance | EC50 [1, 7] [nM] | EC50 [2, 7] [nM] | EC50 [3] [nM] | EC50 [4] [nM] | EC50 [5, 7] [nM] | EC50 [6] [nM] | EC50 [1] [nM] | EC50 [2] [nM] | EC50 [5] [nM] |
| --- | --- | --- | --- | --- | --- | --- | --- | --- | --- |
| Y[Aib]QGT[αMePhe(2-F)]TSD[4Pal]SI[αMeL]LD[Orn]K([AEEA-γGlu-C18 diacid])AQ[αMe4Pal][Orn]FI[dE][αMeY]LIEGGPSSGEPPPEGGGE-NH2 [Example 757] | – | – | 30.8 | 1.81 | – | 310 | 0.236 | 0.00959 | 2.32 |
| H-Y[Aib]QGT[αMePhe(2-F)]TSD[4Pal][αMeS]I[αMeL]LD[Orn]K([AEEA-γGlu-C18 diacid])AQ[Aib][Orn]FIEYLIEGGPSSGEPPPEEG-NH2 [Example 476] | – | – | 14.6 | 1.29 | – | 90.2 | 0.164 | 0.0131 | 1.34 |
| H-Y[Aib]QGTFTSDFS[Dap][αMeL]LDKK([γGlu-γGlu-C18 diacid])AQ[Aib]AFIEYLLE[Aib]GPSSGAPPPSGS-NH2 [Example 203] | 4.72 | 0.125 | 532 | 19 | 6.92 | 1160 | – | – | – |
| H-Y[Aib]QGTFTSDFS[Orn][αMeL]LDKK([AEEA-AEEA-γGlu-C18 diacid])AQ[Aib]AFIEYLLE[Aib]GPSSGEPPPEGS-NH2 [Example 195] | 6.13 | 0.145 | 829 | 28.8 | 3.1 | 605 | – | – | – |

Second part, the substance after the results:

| EC50 [1, 7] [nM] | EC50 [2, 7] [nM] | EC50 [3] [nM] | EC50 [4] [nM] | EC50 [5, 7] [nM] | EC50 [6] [nM] | EC50 [1] [nM] | EC50 [2] [nM] | EC50 [5] [nM] | Substance |
| --- | --- | --- | --- | --- | --- | --- | --- | --- | --- |
| 1.62 | 0.213 | 395 | 49.6 | 10.7 | 2930 | – | – | – | H-Y[Aib]QGT[αMePhe(2-F)]TSD[Phe(4-CN)]SILLDKQAQK([AEEA-γGlu-C20 diacid])AFIQYLLEGGPSSGEPPPSEG-NH2 [Example 341] |
| – | – | 24.5 | 1.39 | – | 398 | 0.467 | 0.0273 | 6.59 | H-Y[Aib]QGT[αMePhe(2-F)]TSD[4Pal][αMeS]I[αMeL]LD[Orn]K([γGlu-γGlu-C18 diacid])AQ[Aib]QFI[dE][αMeY]LQEGGPSSGEPPPEGTGE-NH2 [Example 529] |
| – | – | 116 | 13.2 | – | 477 | 0.986 | 0.125 | 6.13 | H-Y[Aib]QGT[αMePhe(2-F)]TSD[4Pal][αMeS]I[αMeL]LD[Orn]K([γGlu-γGlu-C18 diacid])AQ[Aib][Orn]FI[dE][αMeY]LSEGGPSSGEPPPSGGEE-NH2 [Example 568] |
